≈ marks a conversion by molar mass, not a printed value. Entries after “also recorded” stand apart in the source; their conditions may differ. Like-named read-outs stand apart in the source and are kept apart here.
How the values were obtained:
M. tuberculosis H37Rv = experiment: MIC by agar dilution method; assay type: cell-based; conditions: Mycobacterium tuberculosis, acidic agar pH 5.5 to 6, 30 days
[1] = assay type: in vitro ADME, mouse
Method: Test compounds were weighed and dissolved in dimethyl sulfoxide (DMSO) to give 10 mM stock solutions. The stock solutions were diluted to 500 μM with a mixture of methanol and H2O (1:1), and the final concentrations of DMSO and methanol were equal to, or less than, 0.1%. Liver microsome incubations were conducted in duplicate in 96—well plates. Each well contained 40 μL of 0.1 M potassium phosphate buffer (pH 7.4), 2.5 mM MgCl2, 0.625 mg/mL mouse liver microsomes, and test compound (1.25 μM) or positive control. After a 5 min pre-incubation at 37°C, 10 μL of 5.0 mM NADPH in 0.1 M potassium phosphate buffer was added to initiate the enzymatic reaction. The final concentrations were 0.1M potassium phosphate (pH 7.4), 1.0 mM NADPH, 2.0 mM MgCl2, 0.5 mg/mL mouse liver microsomes, and test compound (1.0 μM) or positive control (1.0 μM). Reactions were terminated at various time points (0, 5, 10, 20, 40 min) by adding 100 μL of ice-cold acetonitrile containing internal standard. A parallel incubation was performed using 0.1 M potassium phosphate (pH 7.4) instead of NADPH as the negative control, and the reaction was terminated 40 min after incubation at 37°C. Compound quantitation was performed on a Shimadzu liquid chromatographic system coupled with an API4000 mass spectrometer equipped with TurboIonSpray (ESI) Interface (Applied Biosystems).

M. tuberculosis (H37Rv) = experiment: In vitro accumulation assay, M. tuberculosis; assay type: cell-based; conditions: 120 min of incubation
[2] = mouse, 740 kBq/mL
[3] = system: Pseudomonas aeruginosa (ATCC 10145); experiment: In vitro accumulation assay, P. aeruginosa; assay type: cell-based; conditions: 120 min of incubation
[4] = system: Staphylococcus aureus (ATCC 29213); experiment: In vitro accumulation assay, S. aureus; assay type: cell-based; conditions: 120 min of incubation
[5] = system: Escherichia coli (ATCC 25922); experiment: In vitro accumulation assay, E. coli; assay type: cell-based; conditions: 120 min of incubation
[6] = system: heat-killed control cultures; experiment: Accumulation assay in heat-killed bacteria (negative control); conditions: heat-killed 90°C for 30 min
[7] = system: J774A.1 murine macrophage cells; experiment: Uptake assay in macrophage cells; assay type: cell-based; conditions: 120 min of incubation
[8] = PET/CT imaging and ex vivo biodistribution in M. tuberculosis-infected and uninfected mice
M. tuberculosis = system: M. tuberculosis; design: method as in PMID 23287128; conditions: ref [31]; cited from earlier work
[9] = M. tuberculosis H37Rv, read-out: MIC

NC(=O)c1cnccn1 [PZA, pyrazinamide]
MIC (M. tuberculosis H37Rv; [9]): 20 µg/mL (≈ 0.162 mM)

NC(=O)c1cnc(F)cn1 [5-F-PZA, 5-Fluoropyrazinamide]
fraction of initial concentration metabolized ([1]; CD-1, mouse, microsomes, 40 min, 1 μM, pH 7.4): approximately 20%
stability in the presence of liver microsomes ([1]; mouse): not stable
MIC (M. tuberculosis H37Rv; H37RV, read-out: concentration up to which bacterial growth was not inhibited (MIC)): > 2000 µg/mL
MIC (M. tuberculosis H37Rv; [9]): > 2000 µg/mL

NC(=O)c1cnc([18F])cn1 [5-[^18F]F-PZA, 5-[^18F]F-pyrazinamide]
In vitro accumulation in M. tuberculosis (M. tuberculosis (H37Rv)): 0.094%
incubation time after which defluorination could be detected [2]: 2 min
percent of total activity defluorinated ([2]; 30 min): ~ 25%
percent defluorination ([2]; 60 min): ~ 40%
In vitro accumulation in P. aeruginosa [3]: 0.043±0.026
In vitro accumulation in S. aureus [4]: 0.123±0.014
In vitro accumulation in E. coli [5]: 0.055±0.005
Uptake in heat-killed control cultures [6]: no uptake
Accumulation in J774A.1 murine macrophage cells [7]: 0.057±0.019
bone activity ([8]; PET 10 min and 30 min post-injection, post-mortem analysis): significant activity in the bones
distribution to organs after intravenous administration ([8]; PET imaging): rapidly distributed to various organs
elimination from organs ([8]; PET imaging): rapidly eliminated from all major organs
ex vivo activity in lung (and spleen), infected vs uninfected ([8]; direct γ counting after PET imaging): higher activity in uninfected lung tissue compared to infected lungs; also recorded: higher activity in uninfected lung and spleen tissues
PET concentration (%ID/cc) in blood, liver, bone and lungs, infected vs uninfected mice ([8]; intravenous, throughout 60 min post-injection): not significantly different; also recorded: No significant difference

NC(=O)c1cnc(Cl)cn1 [5-Cl-PZA, 5-Chloropyrazinamide]
activity in M. tuberculosis-infected mice (M. tuberculosis): lack of activity

Reference: article PMC5289470, “The biodistribution of 5-[^18F]fluoropyrazinamide in Mycobacterium tuberculosis-infected mice determined by positron emission tomography” (PLoS ONE, 2017)
